Here are results for 45 molecules from patent US6995185B2, “Δ1-pyrrolines used as pesticides” (Bayer Cropscience AG, priority 2000, dated 2006).

What is called chromatographic logP is a lipophilicity value derived from retention on a column.

Data set [1] deals with caterpillars of the army worm (Spodoptera frugiperda). In words: Spodoptera frugiperda test. Type of data set: in vivo. The settings on record: 1000 ppm, cabbage leaves (Brassica oleracea) dipped. As to the method:
(§1) Spodoptera frugiperda Test • Solvent: 30 parts by weight of dimethylformamide • Emulsifier: 1 part by weight of alkylaryl polyglycol ether To produce a suitable preparation of active compound, 1 part by weight of active compound is mixed with the stated amounts of solvent and emulsifier, and the concentrate is diluted with emulsifier-containing water to the desired concentration. Cabbage leaves (Brassica oleracea) are treated by being dipped into the preparation of active compound of the desired concentration and are populated with caterpillars of the army worm (Spodoptera frugiperda) while the leaves are still moist. After the desired period of time, the kill in % is determined. 100% means that all caterpillars have been killed; 0% means that none of the caterpillars have been killed.

Data set [2] is described as follows: log P determination by HPLC on reversed-phase column (C 18), EEC directive 79/831 Annex V.A8. The settings on record: reversed-phase HPLC column (C 18), pH 2.3, pH 2.3 (marked a), 0.1% aqueous phosphoric acid/acetonitrile, 43° C. Type of data set: physicochemical. As to the method: The log P values given in the tables and Preparation Examples above are determined in accordance with EEC directive 79/831 Annex V.A8 by HPLC (High Performance Liquid Chromatography) using a reversed-phase column (C 18). Temperature: 43° C. In the acidic range, the determination is carried out at pH 2.3 using the mobile phases 0.1% aqueous phosphoric acid and acetonitrile; linear gradient from 10% acetonitrile to 90% acetonitrile (marked^a) in the table). In the neutral range, the determination is carried out at pH 7.5 using the mobile phases 0.01-molar aqueous phosphate buffer solution and acetonitrile; linear gradient from 10% acetonitrile to 90% acetonitrile (marked^b) in the table). Calibration is carried out using unbranched alkan-2-ones (having 3 to 16 carbon atoms) with known log P values (determination of the log P values by the retention times using linear interpolation between two successive alkanones).

A further data set deals with Meloidogyne icognita. In words: Meloidogyne test. The following applies: 20 ppm, lettuce in sand, nematicidal action by formation of galls. The format is in vivo. Here is the method: Meloidogyne Test • Solvent: 30 parts by weight of dimethylformamide • Emulsifier: 1 part by weight of alkylaryl polyglycol ether To produce a suitable preparation of active compound, 1 part by weight of active compound is mixed with the stated amounts of solvent and emulsifier, and the concentrate is diluted with emulsifier-containing water to the desired concentration. Vessels are filled with sand, solution of active compound, Meloidogyne icognita egg/larvae suspension and lettuce seeds. The lettuce seeds germinate and the plants develop. On the roots, galls develop. After the desired period of time, the nematicidal action is determined in % by the formation of galls. 100% means that no galls have been found; 0% means that the number of galls on the treated plants corresponds to that of the untreated control.

In data set [3] the test system is larvae of the mustard beetle (Phaedon cochloeariae). In words: Phaedon larvae test. The settings on record: 1000 ppm, cabbage leaves (Brassica oleracea) dipped. Type of data set: in vivo. Here is the method: as §1, with “Phaedon larvae Test” for “Spodoptera frugiperda Test”, “with larvae” for “with caterpillars”, “the mustard beetle (Phaedon cochloeariae)” for “the army worm (Spodoptera frugiperda)”, “all beetle larvae” for “all caterpillars”, “the beetle larvae” for “the caterpillars”

With `N#CC1CC(c2ccccc2Cl)=NC1c1ccc(-c2ccc(OC(F)(F)F)cc2)cc1` (stereo not drawn), the “Kill rate in % after 7 days” value in data set [1] was 100%. Still for that read-out and setting: the figure for `CC(C)c1ccc(-c2ccc(C3N=C(c4ccccc4Cl)CC3C#N)cc2)cc1` (stereo not drawn) is 100%. For the molecule `CC(C)NC(=O)[C@H]1CC(c2c(F)cccc2F)=NC1c1ccc(-c2ccc(OC(F)(F)F)cc2)cc1` (stereo partly drawn) [Example 64], in data set [2], the chromatographic logP worked out at 3.74. On the same count and under the same terms, in the case of `CC(C)(C)NC(=O)[C@H]1CC(c2c(F)cccc2F)=NC1c1ccc(-c2ccc(OC(F)(F)F)cc2)cc1` (stereo partly drawn) [Example 65] it was 4.23; in that of `O=C(NC1CCCCC1)[C@H]1CC(c2c(F)cccc2F)=NC1c1ccc(-c2ccc(OC(F)(F)F)cc2)cc1` (stereo partly drawn) [Example 66], 4.37; in that of `CN(C)C(=O)[C@H]1CC(c2c(F)cccc2F)=NC1c1ccc(-c2ccc(OC(F)(F)F)cc2)cc1` (stereo partly drawn) [Example 67], 3.61.

`CCN(C)C(=O)[C@H]1CC(c2c(F)cccc2F)=NC1c1ccc(-c2ccc(OC(F)(F)F)cc2)cc1` (stereo partly drawn) [Example 68] came in with a chromatographic logP in data set [2] of 3.9. On the same count and under the same terms, the figure for `CCCN(C)C(=O)[C@H]1CC(c2c(F)cccc2F)=NC1c1ccc(-c2ccc(OC(F)(F)F)cc2)cc1` (stereo partly drawn) [Example 69] is 4.23; for `CCCCN(C)C(=O)[C@H]1CC(c2c(F)cccc2F)=NC1c1ccc(-c2ccc(OC(F)(F)F)cc2)cc1` (stereo partly drawn) [Example 70] it is 4.56. `CCCCCN(C)C(=O)[C@H]1CC(c2c(F)cccc2F)=NC1c1ccc(-c2ccc(OC(F)(F)F)cc2)cc1` (stereo partly drawn) [Example 71] gave a chromatographic logP in data set [2] of 4.92. The same measure, in the same setting: in the case of `CCN(CC)C(=O)[C@H]1CC(c2c(F)cccc2F)=NC1c1ccc(-c2ccc(OC(F)(F)F)cc2)cc1` (stereo partly drawn) [Example 72] it was 4.18; in that of `CCCN(CCC)C(=O)[C@H]1CC(c2c(F)cccc2F)=NC1c1ccc(-c2ccc(OC(F)(F)F)cc2)cc1` (stereo partly drawn) [Example 73], 4.92; in that of `CCCCN(CCCC)C(=O)[C@H]1CC(c2c(F)cccc2F)=NC1c1ccc(-c2ccc(OC(F)(F)F)cc2)cc1` (stereo partly drawn) [Example 74], 5.65.

`CCCCCN(CCCCC)C(=O)[C@H]1CC(c2c(F)cccc2F)=NC1c1ccc(-c2ccc(OC(F)(F)F)cc2)cc1` (stereo partly drawn) [Example 75] registered a chromatographic logP in data set [2] of 6.43. On the same count and under the same terms, the figure for `O=C([C@H]1CC(c2c(F)cccc2F)=NC1c1ccc(-c2ccc(OC(F)(F)F)cc2)cc1)N1CCCC1` (stereo partly drawn) [Example 76] is 3.82; for `O=C([C@H]1CC(c2c(F)cccc2F)=NC1c1ccc(-c2ccc(OC(F)(F)F)cc2)cc1)N1CCCCC1` (stereo partly drawn) [Example 77] it is 4.32; for `O=C(NCc1ccccc1)[C@H]1CC(c2c(F)cccc2F)=NC1c1ccc(-c2ccc(OC(F)(F)F)cc2)cc1` (stereo partly drawn) [Example 78] it is 3.94.

In turn, `O=C(NCc1ccccc1Cl)[C@H]1CC(c2c(F)cccc2F)=NC1c1ccc(-c2ccc(OC(F)(F)F)cc2)cc1` (stereo partly drawn) [Example 79] registered a chromatographic logP in data set [2] of 4.46. Same read-out and setting: in the case of `O=C(NCc1cccc(Cl)c1)[C@H]1CC(c2c(F)cccc2F)=NC1c1ccc(-c2ccc(OC(F)(F)F)cc2)cc1` (stereo partly drawn) [Example 80] it was 4.46; in that of `O=C(NCc1ccc(Cl)cc1)[C@H]1CC(c2c(F)cccc2F)=NC1c1ccc(-c2ccc(OC(F)(F)F)cc2)cc1` (stereo partly drawn) [Example 81], 4.41; in that of `O=C(NCC1CCCCC1)[C@H]1CC(c2c(F)cccc2F)=NC1c1ccc(-c2ccc(OC(F)(F)F)cc2)cc1` (stereo partly drawn) [Example 82], 4.67.

Take `O=C(NCC1CCCO1)[C@H]1CC(c2c(F)cccc2F)=NC1c1ccc(-c2ccc(OC(F)(F)F)cc2)cc1` (stereo partly drawn) [Example 83]: in data set [2], the chromatographic logP worked out at 3.48. In turn, `COCCNC(=O)[C@H]1CC(c2c(F)cccc2F)=NC1c1ccc(-c2ccc(OC(F)(F)F)cc2)cc1` (stereo partly drawn) [Example 84] registered a chromatographic logP in data set [2] of 3.33. On the same count and under the same terms, the figure for `O=C(NCc1cccs1)[C@H]1CC(c2c(F)cccc2F)=NC1c1ccc(-c2ccc(OC(F)(F)F)cc2)cc1` (stereo partly drawn) [Example 85] is 4.03; for `O=C(NCC(F)(F)F)[C@H]1CC(c2c(F)cccc2F)=NC1c1ccc(-c2ccc(OC(F)(F)F)cc2)cc1` (stereo partly drawn) [Example 86] it is 3.94; for `O=C(Nc1nccs1)[C@H]1CC(c2c(F)cccc2F)=NC1c1ccc(-c2ccc(OC(F)(F)F)cc2)cc1` (stereo partly drawn) [Example 87] it is 3.78.

`COC(=O)c1cnc(NC(=O)[C@H]2CC(c3c(F)cccc3F)=NC2c2ccc(-c3ccc(OC(F)(F)F)cc3)cc2)s1` (stereo partly drawn) [Example 88]: the chromatographic logP in data set [2] turned out to be 3.94. Still for that read-out and setting: the figure for `O=C(NC1CCC(C(F)(F)F)CC1)[C@H]1CC(c2c(F)cccc2F)=NC1c1ccc(-c2ccc(OC(F)(F)F)cc2)cc1` (stereo partly drawn) [Example 89] is 4.46; for `O=C([C@H]1CC(c2c(F)cccc2F)=NC1c1ccc(-c2ccc(OC(F)(F)F)cc2)cc1)N1CCOCC1` (stereo partly drawn) [Example 90] it is 3.49; for `Cc1ccc(CNC(=O)[C@H]2CC(c3c(F)cccc3F)=NC2c2ccc(-c3ccc(OC(F)(F)F)cc3)cc2)cc1` (stereo partly drawn) [Example 91] it is 4.37.

Consider `O=C(Nc1ccc(OC(F)(F)F)cc1)[C@H]1CC(c2c(F)cccc2F)=NC1c1ccc(-c2ccc(OC(F)(F)F)cc2)cc1` (stereo partly drawn) [Example 92], for which, in data set [2], the chromatographic logP was 4.87. The molecule `O=C(NCc1ccc(Cl)cc1Cl)[C@H]1CC(c2c(F)cccc2F)=NC1c1ccc(-c2ccc(OC(F)(F)F)cc2)cc1` (stereo partly drawn) [Example 93] had a chromatographic logP in data set [2] of 4.87. In the case of `COc1ccccc1CNC(=O)[C@H]1CC(c2c(F)cccc2F)=NC1c1ccc(-c2ccc(OC(F)(F)F)cc2)cc1` (stereo partly drawn) [Example 94], the chromatographic logP in data set [2] came out at 4.18. Same read-out and setting: the figure for `COc1cccc(CNC(=O)[C@H]2CC(c3c(F)cccc3F)=NC2c2ccc(-c3ccc(OC(F)(F)F)cc3)cc2)c1OC` (stereo partly drawn) [Example 95] is 4.03; for `Cc1cc(C)cc(CNC(=O)[C@H]2CC(c3c(F)cccc3F)=NC2c2ccc(-c3ccc(OC(F)(F)F)cc3)cc2)c1` (stereo partly drawn) [Example 96] it is 4.72. The molecule `O=C(NCc1ccc(F)cc1F)[C@H]1CC(c2c(F)cccc2F)=NC1c1ccc(-c2ccc(OC(F)(F)F)cc2)cc1` (stereo partly drawn) [Example 97] yielded a chromatographic logP in data set [2] of 4.23. Still for that read-out and setting: in the case of `Cc1cccc(CNC(=O)[C@H]2CC(c3c(F)cccc3F)=NC2c2ccc(-c3ccc(OC(F)(F)F)cc3)cc2)c1` (stereo partly drawn) [Example 98] it was 4.41. On to `COC(=O)C1CC(c2c(F)cccc2F)=NC1c1ccc(-c2ccc(OC(F)(F)F)cc2)cc1` (stereo not drawn) [drawing 146], for which the “Kill rate in % after 14 days” value with Meloidogyne icognita is reported as 100%.

Regarding `N#CC1CC(c2c(F)cccc2F)=NC1c1ccc(-c2ccc(OC(F)(F)F)cc2)cc1` (stereo not drawn) [drawing 147], the “Kill rate in % after 14 days” value with Meloidogyne icognita is 90%. For the molecule `COC(=O)C1CC(c2c(F)cccc2F)=NC1c1ccc(-c2ccc(OC(F)(F)F)cc2)cc1` (stereo not drawn) [drawing 148], the “Kill rate in % after 7 days” value in data set [3] came out at 100%.

Take `N#CC1CC(c2c(F)cccc2F)=NC1c1ccc(-c2ccc(OC(F)(F)F)cc2)cc1` (stereo not drawn) [drawing 149]: the “Kill rate in % after 7 days” value in data set [3] is recorded as 100%.

Take `COC(=O)C1CC(c2ccccc2Cl)=NC1c1ccc(-c2ccc(OC(F)(F)F)cc2)cc1` (stereo not drawn) [drawing 150]: the “Kill rate in % after 7 days” value in data set [3] was found to be 100%. On to `COC(=O)C1CC(c2c(F)cccc2F)=NC1c1ccc(-c2ccc(OC(F)(F)F)cc2)cc1` (stereo not drawn) [drawing 151], for which the “Kill rate in % after 7 days” value in data set [1] turned out to be 100%. Still for that read-out and setting: the figure for `COC(=O)C1CC(c2ccccc2Cl)=NC1c1ccc(-c2ccc(OC(F)(F)F)cc2)cc1` (stereo not drawn) [drawing 152] is 100%.

Take `N#CC1CC(c2c(F)cccc2F)=NC1c1ccc(-c2ccc(OC(F)(F)F)cc2)cc1` (stereo not drawn) [drawing 154]: the “Kill rate in % after 7 days” value in data set [1] came out at 100%.
